Biological target: T1, AFV3-109 (Betalipothrixvirus acidiani, UniProt A7WKA5)
T1 construct: homodimer in solution and crystal
Experiment: tryptophan fluorescence quenching titration
Format: binding
Conditions: read-out: KDapp

OCC(O)CO [glycerol]
Kd: 1700 nM

From article PMC1796864, “Crystal structure of AFV3-109, a highly conserved protein from crenarchaeal viruses” (Virology Journal, 2007)
